Each compound was assayed on MOLM-13 cells (assay: MOLM-13 Cell Proliferation Assay (indicator of DHODH inhibition)). Conditions: Homo sapiens, 72 Hours of culture, CellTiter-Glo, no uridine.
Assay type: cell-based
Method: The following assay was conducted to measure proliferation of MOLM-13 cells in the presence of each compound studied. This assay was included as an indicator of DHODH inhibition, as growth of MOLM-13 cells is known to depend on synthesis of pyrimidines using the de novo pathway, which can be blocked by inhibition of DHODH. • 1. MOLM-13 cells were cultured in RPMI 1640 medium+10% Fetal Bovine Serum (FBS). Only low passage cells (<20) were used for the compound tests • 2. On day 1, Log-phase growing Molm-13 Cells were counted and diluted to 10^5 cells/mL in RPMI 1640 medium+10% FBS • 3. 100 μL of diluted MOLM-13 cells in 96 well white plates were seeded, for a final density of 10^4 cells/well. • 4. 0.5 μL of pre-diluted 200× compounds or DMSO control was added to each well. The final DMSO concentration was 0.5%. • 5. After 72 Hours of culture at 37° C., 5% CO2, the plates were taken out and cooled to RT, then 50 μL CellTiter-Glo® (Promega) was added, and the composition was mixed at RT for 10 minutes. • 6. The plates were then read by ViewLux (Speed-fast, Gain-High, Bining-1X, 5 seconds).
With `Cc1nc(N2CCc3c([nH]c4cc(F)c(Cl)cc34)C2c2cccc(F)c2F)nc(C)c1F` (stereo not shown) [Compound 112, 6-chloro-1-(2,3-difluorophenyl)-7-fluoro-2-(5-fluoro-4,6-dimethylpyrimidin-2-yl)-2,3,4,9-tetrahydro-1H-pyrido[3,4-b]indole] the IC50 was 3.8 nM.
`O=C(O)CCNc1ncc([C@H]2c3[nH]c4ccc(Cl)cc4c3CCN2c2nc(C(F)(F)F)nc(C(F)(F)F)n2)cn1` [Compound 537, N-(5-{(1S)-2-[4,6-bis(trifluoromethyl)-1,3,5-triazin-2-yl]-6-chloro-2,3,4,9-tetrahydro-1H-pyrido[3,4-b]indol-1-yl}pyrimidin-2-yl)-β-alanine] was tested, and the IC50 was 4 nM.
Compound `Fc1ccc(C2c3[nH]c4ccc(Cl)cc4c3CCN2c2nccc(C(F)(F)F)n2)c(F)c1` (stereo not shown) [Compound 423, 6-chloro-1-(2,4-difluorophenyl)-2-[4-(trifluoromethyl)pyrimidin-2-yl]-2,3,4,9-tetrahydro-1H-pyrido[3,4-b]indole] has an IC50 of 6.1 nM.
`COC(=O)c1ccnc(N2CCc3c([nH]c4ccc(Cl)c(F)c34)C2c2ccc(Cl)cc2)n1` (stereo not shown) [Compound 87, methyl 2-[6-chloro-1-(4-chlorophenyl)-5-fluoro-1,3,4,9-tetrahydro-2H-pyrido[3,4-b]indol-2-yl]pyrimidine-4-carboxylate] was tested, and the IC50 was 7.9 nM.
`Cc1nc(C#N)nc(N2CCc3c([nH]c4ccc(Cl)cc34)[C@@H]2c2cnc(N3CCOCC3)nc2)n1` [Compound 415, 4-{(1S)-6-chloro-1-[2-(morpholin-4-yl)pyrimidin-5-yl]-1,3,4,9-tetrahydro-2H-pyrido[3,4-b]indol-2-yl}-6-methyl-1,3,5-triazine-2-carbonitrile] showed an IC50 of 50.6 nM.
With `O=C(O)COCCNc1ncc([C@H]2c3[nH]c4ccc(Cl)cc4c3CCN2c2nc(C(F)(F)F)nc(C(F)(F)F)n2)cn1` [Compound 539, {2-[(5-{(1S)-2-[4,6-bis(trifluoromethyl)-1,3,5-triazin-2-yl]-6-chloro-2,3,4,9-tetrahydro-1H-pyrido[3,4-b]indol-1-yl}pyrimidin-2-yl)amino]ethoxy}acetic acid] the IC50 was 12 nM.
Compound `Cc1ccc(C2c3[nH]c4ccc(Cl)cc4c3CCN2c2nc(Cl)cc(Cl)n2)cc1` (stereo not shown) [Compound 7, 6-chloro-2-(4,6-dichloropyrimidin-2-yl)-1-(4-methylphenyl)-2,3,4,9-tetrahydro-1H-pyrido[3,4-b]indole] has an IC50 of 0.6 nM.
Work on `Cc1ccc(C2c3[nH]c4cc(F)c(Cl)cc4c3CCN2c2nc(C#N)cc(C#N)n2)c(F)c1F` (stereo not shown) [Compound 216, 2-[6-chloro-1-(2,3-difluoro-4-methylphenyl)-7-fluoro-1,3,4,9-tetrahydro-2H-pyrido[3,4-b]indol-2-yl]pyrimidine-4,6-dicarbonitrile] yielded an IC50 of 4.8 nM.
With `Cc1ccc(C2c3[nH]c4cc(F)c(Cl)cc4c3CCN2c2nccc(C#N)n2)cc1` (stereo not shown) [Compound 44, 2-[6-chloro-7-fluoro-1-(4-methylphenyl)-1,3,4,9-tetrahydro-2H-pyrido[3,4-b]indol-2-yl]pyrimidine-4-carbonitrile] the IC50 was 14.7 nM.
`Cc1nc(C)nc(N2CCc3c([nH]c4ccc(Cl)cc34)C2c2cnc(N3C4CCC3COC4)nc2)n1` (stereo not shown) [Compound 338, 6-chloro-2-(4,6-dimethyl-1,3,5-triazin-2-yl)-1-[2-(3-oxa-8-azabicyclo[3.2.1]octan-8-yl)pyrimidin-5-yl]-2,3,4,9-tetrahydro-1H-pyrido[3,4-b]indole] gave an IC50 of 35 nM.
With `Cc1ccnc(N2CCc3c([nH]c4ccc(Cl)c(F)c34)C2c2ccc(C)c(F)c2F)n1` (stereo not shown) [Compound 196, 6-chloro-1-(2,3-difluoro-4-methylphenyl)-5-fluoro-2-(4-methylpyrimidin-2-yl)-2,3,4,9-tetrahydro-1H-pyrido[3,4-b]indole] the IC50 was 1.8 nM.
In the case of `Cc1ccc(C2c3[nH]c4ccc(Cl)cc4c3CCN2c2nccc(C(F)(F)F)n2)cc1O` (stereo not shown) [Compound 258, 5-{6-chloro-2-[4-(trifluoromethyl)pyrimidin-2-yl]-2,3,4,9-tetrahydro-1H-pyrido[3,4-b]indol-1-yl}-2-methylphenol], the IC50 is reported as 28.3 nM.
With `Cc1ccc(C2c3[nH]c4ccc(F)cc4c3CCN2c2nc(C(F)(F)F)nc(C(F)(F)F)n2)c(F)c1F` (stereo not shown) [Compound 492, 2-[4,6-bis(trifluoromethyl)-1,3,5-triazin-2-yl]-1-(2,3-difluoro-4-methylphenyl)-6-fluoro-2,3,4,9-tetrahydro-1H-pyrido[3,4-b]indole] the IC50 was 3.2 nM.
Work on `Fc1cnc(N2CCc3c([nH]c4cc(F)c(Cl)cc34)C2c2cccc(F)c2)nc1` (stereo not shown) [Compound 58, 6-chloro-7-fluoro-1-(3-fluorophenyl)-2-(5-fluoropyrimidin-2-yl)-2,3,4,9-tetrahydro-1H-pyrido[3,4-b]indole] yielded an IC50 of 89.8 nM.
With `Cc1ccc(C2c3[nH]c4ccc(Cl)c(F)c4c3CCN2c2nc(C)cc(C#N)n2)cc1` (stereo not shown) [Compound 110, 2-[6-chloro-5-fluoro-1-(4-methylphenyl)-1,3,4,9-tetrahydro-2H-pyrido[3,4-b]indol-2-yl]-6-methylpyrimidine-4-carbonitrile] the IC50 was 2.8 nM.
`COc1nc(C)nc(N2CCc3c([nH]c4ccc(Cl)cc34)C2c2cnc(N3CCOCC3)nc2)n1` (stereo not shown) [Compound 295, 6-chloro-2-(4-methoxy-6-methyl-1,3,5-triazin-2-yl)-1-[2-(morpholin-4-yl)pyrimidin-5-yl]-2,3,4,9-tetrahydro-1H-pyrido[3,4-b]indole] showed an IC50 of 14.7 nM.
Compound `FC(F)(F)c1nc(N2CCOCC2)nc(N2CCc3c([nH]c4ccc(Cl)cc34)[C@@H]2c2cnc(N3CCOCC3)nc2)n1` [Compound 445, (1S)-6-chloro-1-[2-(morpholin-4-yl)pyrimidin-5-yl]-2-[4-(morpholin-4-yl)-6-(trifluoromethyl)-1,3,5-triazin-2-yl]-2,3,4,9-tetrahydro-1H-pyrido[3,4-b]indole] has an IC50 of 5.2 nM.
`Cc1cc(C)nc(N2CCc3c([nH]c4cc(F)c(Cl)cc34)C2c2cccc(F)c2F)n1` (stereo not shown) [Compound 129, 6-chloro-1-(2,3-difluorophenyl)-2-(4,6-dimethylpyrimidin-2-yl)-7-fluoro-2,3,4,9-tetrahydro-1H-pyrido[3,4-b]indole] was tested, and the IC50 was 7.6 nM.
In the case of `Cc1ccc([C@@H]2c3[nH]c4ccc(Cl)c(F)c4c3CCN2c2nc(C)c(F)c(C)n2)c(F)c1F` [Compound 190, (1R)-6-chloro-1-(2,3-difluoro-4-methylphenyl)-5-fluoro-2-(5-fluoro-4,6-dimethylpyrimidin-2-yl)-2,3,4,9-tetrahydro-1H-pyrido[3,4-b]indole], the IC50 is reported as 420 nM.
In the case of `Cc1cc(C#N)nc(N2CCc3c([nH]c4ccc(Cl)c(F)c34)C2c2ccc(F)cc2)n1` (stereo not shown) [Compound 111, 2-[6-chloro-5-fluoro-1-(4-fluorophenyl)-1,3,4,9-tetrahydro-2H-pyrido[3,4-b]indol-2-yl]-6-methylpyrimidine-4-carbonitrile], the IC50 is reported as 8.1 nM.
`CN(C)CCNc1ncc([C@H]2c3[nH]c4ccc(Cl)cc4c3CCN2c2nc(C(F)(F)F)nc(C(F)(F)F)n2)cn1` [Compound 531, N^2-(5-{(1S)-2-[4,6-bis(trifluoromethyl)-1,3,5-triazin-2-yl]-6-chloro-2,3,4,9-tetrahydro-1H-pyrido[3,4-b]indol-1-yl}pyrimidin-2-yl)-N^1,N^1-dimethylethane-1,2-diamine] showed an IC50 of 5 nM.
With `CCCCN(CCCC)c1nc(C)nc(N2CCc3c([nH]c4ccc(Cl)cc34)C2c2cnc(N3CCOCC3)nc2)n1` (stereo not shown) [Compound 315, N,N-dibutyl-4-{6-chloro-1-[2-(morpholin-4-yl)pyrimidin-5-yl]-1,3,4,9-tetrahydro-2H-pyrido[3,4-b]indol-2-yl}-6-methyl-1,3,5-triazin-2-amine] the IC50 was 11.7 nM.
